How the values were obtained:
Test in all cases: relative viability (nuclei count vs DMSO), 5 days (fraction); higher = more cells survive
Bortezomib + Palbociclib = compound: CC(C)C[C@H](NC(=O)[C@H](Cc1ccccc1)NC(=O)c1cnccn1)B(O)O [Bortezomib] + CC(=O)c1c(C)c2cnc(Nc3ccc(N4CCNCC4)cn3)nc2n(C2CCCC2)c1=O [Palbociclib] (partner 0.5 µM)
Summary of the method: (§1)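 Each reported value is a median over duplicate plates. It expresses relative viability: treated-well nuclei count divided by vehicle-well nuclei count. Lung cancer cell lines in 1536-well plates were dosed by pin tool a day after seeding, alone with one drug or with a fixed anchor-drug dose plus five library-drug doses (not always all listed) in √10 steps, and nuclei were counted after 5 days.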

[1] = compound: CC1=CC(=NN1)NC2=CC(=NC(=N2)/C=C/C3=CC=CC=C3)N4CCN(CC4)C + C[C@@H](Oc1cc(-c2cnn(C3CCNCC3)c2)cnc1N)c1c(Cl)ccc(F)c1Cl [Crizotinib] (partner 1 µM)
Summary of the method: as §1

[2] = compound: CC1=CC(=NN1)NC2=CC(=NC(=N2)/C=C/C3=CC=CC=C3)N4CCN(CC4)C + C[C@]1(O)C[C@@H](c2nc(-c3ccc4ccc(-c5ccccc5)nc4c3)c3c(N)nccn32)C1 [Linsitinib] (partner 1 µM)
Summary of the method: as §1

Obatoclax + Palbociclib = compound: COC1=CC(c2cc3ccccc3[nH]2)=N/C1=C\c1[nH]c(C)cc1C [Obatoclax] + CC(=O)c1c(C)c2cnc(Nc3ccc(N4CCNCC4)cn3)nc2n(C2CCCC2)c1=O [Palbociclib] (partner 0.5 µM)
Summary of the method: as §1

## HCC-78
Bortezomib + Palbociclib; first compound 0.0002 µM
  relative viability: 0.517
Bortezomib + Palbociclib; first compound 0.000632 µM
  relative viability: 0.531
Bortezomib + Palbociclib; first compound 0.002 µM
  relative viability: 0.444
Bortezomib + Palbociclib; first compound 0.006325 µM
  relative viability: 0.451
Bortezomib + Palbociclib; first compound 0.02 µM
  relative viability: 0.405
[1]; first compound 0.08 µM
  relative viability: 0.365
[1]; first compound 0.253 µM
  relative viability: 0.372
[1]; first compound 0.8 µM
  relative viability: 0.352
[1]; first compound 2.53 µM
  relative viability: 0.32
[1]; first compound 8 µM
  relative viability: 0.146
[2]; first compound 0.08 µM
  relative viability: 0.42
[2]; first compound 0.253 µM
  relative viability: 0.568
[2]; first compound 0.8 µM
  relative viability: 0.494
[2]; first compound 2.53 µM
  relative viability: 0.391
[2]; first compound 8 µM
  relative viability: 0.152
Obatoclax + Palbociclib; first compound 0.01 µM
  relative viability: 0.438
Obatoclax + Palbociclib; first compound 0.03162 µM
  relative viability: 0.45
Obatoclax + Palbociclib; first compound 0.1 µM
  relative viability: 0.506
Obatoclax + Palbociclib; first compound 0.3162 µM
  relative viability: 0.479
Obatoclax + Palbociclib; first compound 1 µM
  relative viability: 0.457

## HCC-366
Bortezomib + Palbociclib; first compound 0.0002 µM
  relative viability: 0.352
Bortezomib + Palbociclib; first compound 0.000632 µM
  relative viability: 0.319
Bortezomib + Palbociclib; first compound 0.002 µM
  relative viability: 0.372
Bortezomib + Palbociclib; first compound 0.006325 µM
  relative viability: 0.0727
Bortezomib + Palbociclib; first compound 0.02 µM
  relative viability: 0.0268
[1]; first compound 0.08 µM
  relative viability: 0.6
[1]; first compound 0.253 µM
  relative viability: 0.628
[1]; first compound 0.8 µM
  relative viability: 0.357
[1]; first compound 2.53 µM
  relative viability: 0.0171
[1]; first compound 8 µM
  relative viability: 0.01
[2]; first compound 0.08 µM
  relative viability: 0.478
[2]; first compound 0.253 µM
  relative viability: 1.13
[2]; first compound 0.8 µM
  relative viability: 0.64
[2]; first compound 2.53 µM
  relative viability: 0.102
[2]; first compound 8 µM
  relative viability: 0.0084
Obatoclax + Palbociclib; first compound 0.01 µM
  relative viability: 0.401
Obatoclax + Palbociclib; first compound 0.03162 µM
  relative viability: 0.34
Obatoclax + Palbociclib; first compound 0.1 µM
  relative viability: 0.311
Obatoclax + Palbociclib; first compound 0.3162 µM
  relative viability: 0.304
Obatoclax + Palbociclib; first compound 1 µM
  relative viability: 0.203

## HCC-827
Bortezomib + Palbociclib; first compound 0.0002 µM
  relative viability: 0.496
Bortezomib + Palbociclib; first compound 0.000632 µM
  relative viability: 0.626
Bortezomib + Palbociclib; first compound 0.002 µM
  relative viability: 0.467
Bortezomib + Palbociclib; first compound 0.006325 µM
  relative viability: 0.197
Bortezomib + Palbociclib; first compound 0.02 µM
  relative viability: 0.137
[1]; first compound 0.08 µM
  relative viability: 0.91
[1]; first compound 0.253 µM
  relative viability: 0.999
[1]; first compound 0.8 µM
  relative viability: 0.877
[1]; first compound 2.53 µM
  relative viability: 0.636
[1]; first compound 8 µM
  relative viability: 0.381
[2]; first compound 0.08 µM
  relative viability: 0.955
[2]; first compound 0.253 µM
  relative viability: 1.06
[2]; first compound 0.8 µM
  relative viability: 0.932
[2]; first compound 2.53 µM
  relative viability: 0.814
[2]; first compound 8 µM
  relative viability: 0.635
Obatoclax + Palbociclib; first compound 0.01 µM
  relative viability: 0.475
Obatoclax + Palbociclib; first compound 0.03162 µM
  relative viability: 0.436
Obatoclax + Palbociclib; first compound 0.1 µM
  relative viability: 0.531
Obatoclax + Palbociclib; first compound 0.3162 µM
  relative viability: 0.407
Obatoclax + Palbociclib; first compound 1 µM
  relative viability: 0.482

## HOP-62
Bortezomib + Palbociclib; first compound 0.0002 µM
  relative viability: 0.437
Bortezomib + Palbociclib; first compound 0.000632 µM
  relative viability: 0.492
Bortezomib + Palbociclib; first compound 0.002 µM
  relative viability: 0.307
Bortezomib + Palbociclib; first compound 0.006325 µM
  relative viability: 0.0611
Bortezomib + Palbociclib; first compound 0.02 µM
  relative viability: 0.0516
[1]; first compound 0.08 µM
  relative viability: 0.985
[1]; first compound 0.253 µM
  relative viability: 0.963
[1]; first compound 0.8 µM
  relative viability: 0.979
[1]; first compound 2.53 µM
  relative viability: 0.706
[1]; first compound 8 µM
  relative viability: 0.229
[2]; first compound 0.08 µM
  relative viability: 0.959
[2]; first compound 0.253 µM
  relative viability: 1.11
[2]; first compound 0.8 µM
  relative viability: 0.99
[2]; first compound 2.53 µM
  relative viability: 0.875
[2]; first compound 8 µM
  relative viability: 0.326
Obatoclax + Palbociclib; first compound 0.01 µM
  relative viability: 0.425
Obatoclax + Palbociclib; first compound 0.03162 µM
  relative viability: 0.393
Obatoclax + Palbociclib; first compound 0.1 µM
  relative viability: 0.415
Obatoclax + Palbociclib; first compound 0.3162 µM
  relative viability: 0.499
Obatoclax + Palbociclib; first compound 1 µM
  relative viability: 0.455

## IA-LM
[1]; first compound 0.253 µM
  relative viability: 0.899
[1]; first compound 0.8 µM
  relative viability: 0.884
[1]; first compound 2.53 µM
  relative viability: 0.38
[1]; first compound 8 µM
  relative viability: 0.0798
[2]; first compound 0.08 µM
  relative viability: 0.561
[2]; first compound 0.253 µM
  relative viability: 0.61
[2]; first compound 0.8 µM
  relative viability: 0.878
[2]; first compound 2.53 µM
  relative viability: 0.752
[2]; first compound 8 µM
  relative viability: 0.729

## LC-2-ad
Bortezomib + Palbociclib; first compound 0.0002 µM
  relative viability: 0.534
Bortezomib + Palbociclib; first compound 0.000632 µM
  relative viability: 0.499
Bortezomib + Palbociclib; first compound 0.002 µM
  relative viability: 0.504
Bortezomib + Palbociclib; first compound 0.006325 µM
  relative viability: 0.278
Bortezomib + Palbociclib; first compound 0.02 µM
  relative viability: 0.161
[1]; first compound 0.08 µM
  relative viability: 0.475
[1]; first compound 0.253 µM
  relative viability: 0.469
[1]; first compound 0.8 µM
  relative viability: 0.365
[1]; first compound 2.53 µM
  relative viability: 0.303
[1]; first compound 8 µM
  relative viability: 0.186
[2]; first compound 0.08 µM
  relative viability: 0.732
[2]; first compound 0.253 µM
  relative viability: 0.803
[2]; first compound 0.8 µM
  relative viability: 0.473
[2]; first compound 2.53 µM
  relative viability: 0.122
[2]; first compound 8 µM
  relative viability: 0.0815
Obatoclax + Palbociclib; first compound 0.01 µM
  relative viability: 0.428
Obatoclax + Palbociclib; first compound 0.03162 µM
  relative viability: 0.46
Obatoclax + Palbociclib; first compound 0.1 µM
  relative viability: 0.489
Obatoclax + Palbociclib; first compound 0.3162 µM
  relative viability: 0.464
Obatoclax + Palbociclib; first compound 1 µM
  relative viability: 0.438

## LCLC-97TM1
Bortezomib + Palbociclib; first compound 0.0002 µM
  relative viability: 0.235
Bortezomib + Palbociclib; first compound 0.000632 µM
  relative viability: 0.183
Bortezomib + Palbociclib; first compound 0.002 µM
  relative viability: 0.12
Bortezomib + Palbociclib; first compound 0.006325 µM
  relative viability: 0.0721
Bortezomib + Palbociclib; first compound 0.02 µM
  relative viability: 0.0639
[1]; first compound 0.08 µM
  relative viability: 0.381
[1]; first compound 0.253 µM
  relative viability: 0.352
[1]; first compound 0.8 µM
  relative viability: 0.292
[1]; first compound 2.53 µM
  relative viability: 0.152
[1]; first compound 8 µM
  relative viability: 0.078
[2]; first compound 0.08 µM
  relative viability: 0.185
[2]; first compound 0.253 µM
  relative viability: 0.205
[2]; first compound 0.8 µM
  relative viability: 0.204
[2]; first compound 2.53 µM
  relative viability: 0.165
[2]; first compound 8 µM
  relative viability: 0.112
Obatoclax + Palbociclib; first compound 0.01 µM
  relative viability: 0.193
Obatoclax + Palbociclib; first compound 0.03162 µM
  relative viability: 0.223
Obatoclax + Palbociclib; first compound 0.1 µM
  relative viability: 0.204
Obatoclax + Palbociclib; first compound 0.3162 µM
  relative viability: 0.199
Obatoclax + Palbociclib; first compound 1 µM
  relative viability: 0.25

## LCLC-103H
Bortezomib + Palbociclib; first compound 0.0002 µM
  relative viability: 0.475
Bortezomib + Palbociclib; first compound 0.000632 µM
  relative viability: 0.462
Bortezomib + Palbociclib; first compound 0.002 µM
  relative viability: 0.419
Bortezomib + Palbociclib; first compound 0.006325 µM
  relative viability: 0.324
Bortezomib + Palbociclib; first compound 0.02 µM
  relative viability: 0.254
[1]; first compound 0.08 µM
  relative viability: 0.993
[1]; first compound 0.253 µM
  relative viability: 1.19
[1]; first compound 0.8 µM
  relative viability: 1.19
[1]; first compound 2.53 µM
  relative viability: 1.07
[1]; first compound 8 µM
  relative viability: 0.302
[2]; first compound 0.08 µM
  relative viability: 1.16
[2]; first compound 0.253 µM
  relative viability: 1.09
[2]; first compound 0.8 µM
  relative viability: 1.13
[2]; first compound 2.53 µM
  relative viability: 1.12
[2]; first compound 8 µM
  relative viability: 0.809
Obatoclax + Palbociclib; first compound 0.01 µM
  relative viability: 0.432
Obatoclax + Palbociclib; first compound 0.03162 µM
  relative viability: 0.356
Obatoclax + Palbociclib; first compound 0.1 µM
  relative viability: 0.472
Obatoclax + Palbociclib; first compound 0.3162 µM
  relative viability: 0.517
Obatoclax + Palbociclib; first compound 1 µM
  relative viability: 0.446
